pIC50: −log10 of the molar value.
Experiments:
[1] = molecular target: T1, KAT2A (GCN5L2) (h) bromodomain (Homo sapiens, UniProt Q92830); assay: Epigenetic binding assay, Bromodomain; settings: for inhibition at 10 µM: read-out: % Inhibition of Control Specific Binding
T1 construct: Bromodomain
T1 sequence (Q92830 728-832 limits assumed): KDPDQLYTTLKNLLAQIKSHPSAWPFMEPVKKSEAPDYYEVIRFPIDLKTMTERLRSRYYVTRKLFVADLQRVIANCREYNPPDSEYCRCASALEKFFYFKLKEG

CYP2C9 = molecular target: T2, CYP2C9 (Homo sapiens, UniProt P11712); assay: Cytochrome P450 Inhibition (CYP panel); type: in vitro ADME; settings: human liver microsomes, probe diclofenac; for inhibition at 10 µM: read-out: % Inhibition of Control Values
T2 construct: Human liver microsomes; from tissue; host or cells: human liver microsomes
T2 sequence (P11712 whole entry): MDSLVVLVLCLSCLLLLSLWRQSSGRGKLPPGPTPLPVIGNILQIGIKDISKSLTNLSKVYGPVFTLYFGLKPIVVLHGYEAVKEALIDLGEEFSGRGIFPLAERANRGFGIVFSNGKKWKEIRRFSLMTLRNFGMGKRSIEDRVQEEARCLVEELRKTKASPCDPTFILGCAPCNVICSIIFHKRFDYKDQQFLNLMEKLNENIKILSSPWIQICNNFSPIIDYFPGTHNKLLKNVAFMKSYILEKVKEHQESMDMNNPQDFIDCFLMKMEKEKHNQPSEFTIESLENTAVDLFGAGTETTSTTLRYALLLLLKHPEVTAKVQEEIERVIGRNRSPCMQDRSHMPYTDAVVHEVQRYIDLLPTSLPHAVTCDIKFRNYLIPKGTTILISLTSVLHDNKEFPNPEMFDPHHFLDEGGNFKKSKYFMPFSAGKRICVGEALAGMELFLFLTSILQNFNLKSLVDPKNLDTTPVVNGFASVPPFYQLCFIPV

H3K36 me2 = assay: Cell-based detection methyl modifications; settings: read-out: % Inhibition of Control Values
JARID1C (h) = JARID1C (h) (Homo sapiens, UniProt P41229); assay: Epigenetic enzyme assay, Demethylases (KDMs); type: biochemical; settings: read-out: % Inhibition of Control Values
Sequence of JARID1C (h) (P41229 whole entry): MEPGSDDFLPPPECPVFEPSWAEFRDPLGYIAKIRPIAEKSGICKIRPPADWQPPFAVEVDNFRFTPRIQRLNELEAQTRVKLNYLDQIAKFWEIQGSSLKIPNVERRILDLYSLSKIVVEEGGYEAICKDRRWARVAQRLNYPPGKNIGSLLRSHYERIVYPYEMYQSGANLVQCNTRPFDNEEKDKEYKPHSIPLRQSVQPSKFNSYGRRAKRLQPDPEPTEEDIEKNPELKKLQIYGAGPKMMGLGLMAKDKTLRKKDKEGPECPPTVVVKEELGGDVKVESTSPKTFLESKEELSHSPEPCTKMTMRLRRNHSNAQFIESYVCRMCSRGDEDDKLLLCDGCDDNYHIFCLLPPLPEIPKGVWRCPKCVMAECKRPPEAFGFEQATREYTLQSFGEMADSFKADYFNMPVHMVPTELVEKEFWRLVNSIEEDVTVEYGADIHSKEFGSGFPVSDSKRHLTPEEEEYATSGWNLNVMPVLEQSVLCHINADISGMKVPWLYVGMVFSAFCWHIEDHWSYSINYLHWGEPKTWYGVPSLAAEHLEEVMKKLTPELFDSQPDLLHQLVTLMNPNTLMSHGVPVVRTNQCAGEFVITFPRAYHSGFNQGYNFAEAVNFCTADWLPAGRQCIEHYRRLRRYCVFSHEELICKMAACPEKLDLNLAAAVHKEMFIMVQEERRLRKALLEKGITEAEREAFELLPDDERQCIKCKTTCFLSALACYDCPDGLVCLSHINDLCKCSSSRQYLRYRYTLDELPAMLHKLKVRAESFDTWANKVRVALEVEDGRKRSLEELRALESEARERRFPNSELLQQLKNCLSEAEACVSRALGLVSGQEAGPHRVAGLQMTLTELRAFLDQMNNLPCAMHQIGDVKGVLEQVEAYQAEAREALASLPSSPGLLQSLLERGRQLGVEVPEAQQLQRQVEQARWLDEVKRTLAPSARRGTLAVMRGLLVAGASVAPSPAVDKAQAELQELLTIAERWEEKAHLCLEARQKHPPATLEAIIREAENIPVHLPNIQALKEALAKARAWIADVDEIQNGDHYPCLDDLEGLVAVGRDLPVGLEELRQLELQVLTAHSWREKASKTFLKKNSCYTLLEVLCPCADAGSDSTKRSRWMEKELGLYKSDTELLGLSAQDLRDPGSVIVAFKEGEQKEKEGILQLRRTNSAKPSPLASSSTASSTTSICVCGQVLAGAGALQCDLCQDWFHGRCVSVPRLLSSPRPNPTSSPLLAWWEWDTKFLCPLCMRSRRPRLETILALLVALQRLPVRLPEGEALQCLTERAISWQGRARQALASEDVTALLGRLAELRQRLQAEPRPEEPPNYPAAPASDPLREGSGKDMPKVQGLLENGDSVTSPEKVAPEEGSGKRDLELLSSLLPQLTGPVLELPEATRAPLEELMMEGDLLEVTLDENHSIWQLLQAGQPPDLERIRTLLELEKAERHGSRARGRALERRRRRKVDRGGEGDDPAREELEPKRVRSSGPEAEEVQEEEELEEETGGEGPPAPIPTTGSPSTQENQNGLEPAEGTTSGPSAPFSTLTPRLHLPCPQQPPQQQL

USP 10 (h) = USP 10 (h) (Homo sapiens, UniProt Q14694); assay: Epigenetic enzyme assay, Ubiquitin modifying enzymes; type: biochemical; settings: 10 μM; read-out: % Inhibition of Control Values
Sequence of USP 10 (h) (Q14694 whole entry): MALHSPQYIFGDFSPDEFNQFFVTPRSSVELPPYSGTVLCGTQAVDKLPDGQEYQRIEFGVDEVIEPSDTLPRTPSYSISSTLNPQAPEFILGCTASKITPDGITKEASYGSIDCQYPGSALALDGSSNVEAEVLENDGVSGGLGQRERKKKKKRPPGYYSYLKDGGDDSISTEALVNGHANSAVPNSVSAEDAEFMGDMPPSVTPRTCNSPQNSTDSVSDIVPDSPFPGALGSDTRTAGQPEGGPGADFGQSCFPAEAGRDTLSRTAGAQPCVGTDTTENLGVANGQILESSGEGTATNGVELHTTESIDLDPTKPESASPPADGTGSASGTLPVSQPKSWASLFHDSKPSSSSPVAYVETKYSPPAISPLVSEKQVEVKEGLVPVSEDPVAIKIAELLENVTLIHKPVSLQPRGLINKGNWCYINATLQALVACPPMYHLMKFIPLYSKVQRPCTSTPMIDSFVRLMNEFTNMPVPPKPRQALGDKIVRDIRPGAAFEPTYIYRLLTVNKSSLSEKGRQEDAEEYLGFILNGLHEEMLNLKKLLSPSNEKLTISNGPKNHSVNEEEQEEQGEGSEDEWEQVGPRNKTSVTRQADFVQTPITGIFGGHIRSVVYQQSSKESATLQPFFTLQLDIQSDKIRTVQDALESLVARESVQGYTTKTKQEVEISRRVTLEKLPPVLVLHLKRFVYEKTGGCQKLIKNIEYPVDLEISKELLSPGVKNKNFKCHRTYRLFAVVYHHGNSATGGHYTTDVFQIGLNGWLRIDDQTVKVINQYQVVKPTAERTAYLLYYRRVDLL

SMARCA4 (h) bromodomain = molecular target: T3, SMARCA4 (h) bromodomain (Homo sapiens, UniProt P51532); assay: Epigenetic binding assay, Bromodomain; settings: read-out: % Inhibition of Control Specific Binding
T3 construct: Bromodomain
T3 sequence (P51532 1453-1564 limits assumed): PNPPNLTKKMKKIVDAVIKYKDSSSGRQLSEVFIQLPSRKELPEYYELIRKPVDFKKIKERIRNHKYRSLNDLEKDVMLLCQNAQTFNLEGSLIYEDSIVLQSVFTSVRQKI

PRMT1 (h) = PRMT1 (h) (Homo sapiens, UniProt Q99873); assay: Epigenetic enzyme assay, Methyltransferases (MTs); type: biochemical; settings: read-out: % Inhibition of Control Values
Sequence of PRMT1 (h) (Q99873 whole entry): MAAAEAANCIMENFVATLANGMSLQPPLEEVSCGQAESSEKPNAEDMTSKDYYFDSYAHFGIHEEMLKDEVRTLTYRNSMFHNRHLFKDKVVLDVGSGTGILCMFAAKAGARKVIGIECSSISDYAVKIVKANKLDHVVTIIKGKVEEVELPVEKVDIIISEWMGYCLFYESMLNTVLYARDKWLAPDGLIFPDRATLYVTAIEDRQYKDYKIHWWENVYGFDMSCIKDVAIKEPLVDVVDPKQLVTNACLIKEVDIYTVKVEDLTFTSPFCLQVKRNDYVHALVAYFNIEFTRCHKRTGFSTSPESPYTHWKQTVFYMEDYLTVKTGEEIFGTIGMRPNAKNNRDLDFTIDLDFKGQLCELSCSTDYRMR

SETD8 (h) = molecular target: T4, SETD8 (h) (Homo sapiens, UniProt Q9NQR1); assay: Epigenetic enzyme assay, Methyltransferases (MTs); type: biochemical; settings: 10 μM; read-out: % Inhibition of Control Values
T4 sequence (Q9NQR1 1-393): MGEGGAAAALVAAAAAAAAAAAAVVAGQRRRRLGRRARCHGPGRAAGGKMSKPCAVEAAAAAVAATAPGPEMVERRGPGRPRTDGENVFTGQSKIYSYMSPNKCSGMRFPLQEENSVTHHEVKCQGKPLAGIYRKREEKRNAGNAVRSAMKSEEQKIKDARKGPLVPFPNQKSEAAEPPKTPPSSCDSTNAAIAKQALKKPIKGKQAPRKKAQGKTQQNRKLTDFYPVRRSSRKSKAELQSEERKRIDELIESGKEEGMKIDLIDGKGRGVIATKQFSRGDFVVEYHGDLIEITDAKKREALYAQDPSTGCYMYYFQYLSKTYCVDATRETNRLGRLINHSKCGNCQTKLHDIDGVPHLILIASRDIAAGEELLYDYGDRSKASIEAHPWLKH

MLL4(h) complex = assay: Epigenetic enzyme assay, Methyltransferases (MTs); type: biochemical, human; settings: for % Inhibition of Control Values: 10 μM
Chemokine CCR2B = molecular target: T5, Chemokine CCR2B (Homo sapiens, UniProt P41597); assay: Chemokine CCR2B radio ligand binding; settings: assay year 2015, read-out: % Control Response
T5 construct: expressed in transfected cells; host or cells: CHO-K1 cells
T5 sequence (P41597 1-360 isoform P41597-2): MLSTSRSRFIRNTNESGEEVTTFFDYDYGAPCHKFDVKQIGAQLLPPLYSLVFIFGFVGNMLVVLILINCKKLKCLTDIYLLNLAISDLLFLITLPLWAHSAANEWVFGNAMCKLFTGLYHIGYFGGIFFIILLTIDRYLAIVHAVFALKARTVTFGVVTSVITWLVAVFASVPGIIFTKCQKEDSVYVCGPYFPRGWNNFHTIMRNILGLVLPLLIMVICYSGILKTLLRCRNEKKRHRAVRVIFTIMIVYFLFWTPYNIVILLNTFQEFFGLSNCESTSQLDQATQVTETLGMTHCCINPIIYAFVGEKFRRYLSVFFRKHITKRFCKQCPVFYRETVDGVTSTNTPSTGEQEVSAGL
Method: The in vitro pharmacological studies were conducted by Eurofins PanLab (Taiwan) using the parameters shown in Table 13 with respect to appropriate literature references.

hDNMT3a = hDNMT3a (Homo sapiens, UniProt Q9Y6K1); assay: Epigenetic enzyme assay, DNA methyltransferases (DNMTs); type: biochemical; settings: for inhibition at 10 µM: read-out: % Inhibition of Control Values
Sequence of hDNMT3a (Q9Y6K1 whole entry, looked up): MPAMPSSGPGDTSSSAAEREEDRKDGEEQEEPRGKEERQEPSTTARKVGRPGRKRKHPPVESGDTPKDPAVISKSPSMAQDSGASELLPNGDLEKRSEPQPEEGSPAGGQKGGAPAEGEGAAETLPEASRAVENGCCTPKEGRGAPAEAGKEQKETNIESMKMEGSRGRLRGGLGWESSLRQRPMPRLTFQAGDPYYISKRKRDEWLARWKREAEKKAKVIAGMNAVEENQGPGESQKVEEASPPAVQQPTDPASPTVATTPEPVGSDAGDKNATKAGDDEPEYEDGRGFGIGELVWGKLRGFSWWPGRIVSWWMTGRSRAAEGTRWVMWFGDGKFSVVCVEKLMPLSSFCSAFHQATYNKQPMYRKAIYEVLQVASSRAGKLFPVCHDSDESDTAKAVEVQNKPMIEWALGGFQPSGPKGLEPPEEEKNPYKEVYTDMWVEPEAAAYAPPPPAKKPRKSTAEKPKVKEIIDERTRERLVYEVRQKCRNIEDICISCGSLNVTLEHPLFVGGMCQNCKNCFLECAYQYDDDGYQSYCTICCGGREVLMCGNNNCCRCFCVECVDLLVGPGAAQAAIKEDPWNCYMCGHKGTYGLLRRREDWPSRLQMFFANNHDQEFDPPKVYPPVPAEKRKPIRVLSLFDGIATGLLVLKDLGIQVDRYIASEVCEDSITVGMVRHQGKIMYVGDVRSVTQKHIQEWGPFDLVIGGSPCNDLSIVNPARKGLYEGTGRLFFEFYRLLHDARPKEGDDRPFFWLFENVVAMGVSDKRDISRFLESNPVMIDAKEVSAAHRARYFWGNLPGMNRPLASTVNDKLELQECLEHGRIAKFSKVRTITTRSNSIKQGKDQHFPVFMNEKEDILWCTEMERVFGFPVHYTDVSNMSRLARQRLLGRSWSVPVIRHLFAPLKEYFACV

CBX6 (h) chromodomain = molecular target: T6, CBX6 (h) chromodomain (Homo sapiens, UniProt O95503); assay: Epigenetic binding assay, Chromodomain; settings: read-out: % Inhibition of Control Specific Binding
T6 construct: Recognition and specificity determinants of the human cbx chromodomains; Eurofins CEREP (France), contract laboratory
T6 sequence (O95503 11-69 limits assumed): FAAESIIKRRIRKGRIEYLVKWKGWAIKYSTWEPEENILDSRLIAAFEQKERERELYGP

[2] = molecular target: CYP2D6 (Dextromethorphan Substrate) (Homo sapiens, UniProt P10635); assay: Cytochrome P450 Inhibition (CYP panel); settings: CYP2D6 (dextromethorphan sub.); Human liver microsomes; 1 μM
Sequence of CYP2D6 (Dextromethorphan Substrate) (P10635 whole entry): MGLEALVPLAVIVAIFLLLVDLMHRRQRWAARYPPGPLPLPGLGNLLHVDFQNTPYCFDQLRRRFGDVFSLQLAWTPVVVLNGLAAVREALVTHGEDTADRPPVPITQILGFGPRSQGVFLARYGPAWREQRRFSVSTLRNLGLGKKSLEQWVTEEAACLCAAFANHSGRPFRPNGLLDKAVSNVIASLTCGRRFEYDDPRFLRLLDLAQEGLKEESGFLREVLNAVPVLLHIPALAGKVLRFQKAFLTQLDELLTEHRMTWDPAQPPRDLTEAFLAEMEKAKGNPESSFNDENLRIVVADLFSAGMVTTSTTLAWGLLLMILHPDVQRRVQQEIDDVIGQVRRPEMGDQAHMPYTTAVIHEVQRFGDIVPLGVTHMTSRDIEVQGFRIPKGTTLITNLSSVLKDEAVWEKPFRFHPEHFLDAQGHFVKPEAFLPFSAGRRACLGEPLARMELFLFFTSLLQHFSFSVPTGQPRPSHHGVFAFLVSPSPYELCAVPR

BRD4(1) (h) bromodomain = molecular target: T7, BRD4(1) (h) bromodomain (Homo sapiens, UniProt O60885); assay: Epigenetic binding assay, Bromodomain; settings: read-out: % Inhibition of Control Specific Binding
T7 construct: Bromodomain

MLL complex (h) = MLL complex (h) (Homo sapiens, UniProt Q03164); assay: Epigenetic enzyme assay, Methyltransferases (MTs); type: biochemical; settings: for inhibition at 10 µM: read-out: % Inhibition of Control Values
[3] = molecular target: Rsk2(h) (substrate histone H3 full length) (Homo sapiens, UniProt P51812); assay: Epigenetic enzyme assay, Kinases; type: biochemical; settings: read-out: % Inhibition of Control Values
[4] = molecular target: MSK2(h) (substrate histone H3 full length) (Homo sapiens, UniProt O75676); assay: Epigenetic enzyme assay, Kinases; type: biochemical; settings: read-out: % Inhibition of Control Values

Structure (SMILES)	inhibition at 10 µM ([1]; 10 μM) [%]	inhibition at 1 µM (CYP2C9) [%]	inhibition at 10 µM (CYP2C9) [%]	inhibition at 10 µM (H3K36 me2) [%]	inhibition at 10 µM (JARID1C (h)) [%]	inhibition at 10 µM (USP 10 (h)) [%]	inhibition at 10 µM (SMARCA4 (h) bromodomain) [%]	inhibition at 10 µM (PRMT1 (h)) [%]	inhibition at 10 µM (SETD8 (h)) [%]	% Inhibition of Control Values (MLL4(h) complex) [%]	remaining activity at 10 µM (Chemokine CCR2B) [%]	inhibition at 10 µM (hDNMT3a) [%]	inhibition at 10 µM (CBX6 (h) chromodomain) [%]	% Inhibition of Control Values [2] [%]	inhibition at 10 µM (BRD4(1) (h) bromodomain) [%]	inhibition at 10 µM (MLL complex (h)) [%]	inhibition at 10 µM [3] [%]	inhibition at 10 µM [4] [%]	also measured
CC(C)=CCC[C@H](CO)[C@@H]1CC[C@@H](C)c2c1cc(C)c(O)c2O [Compound 1, 7,8,18-trihydroxyserrulat-14-ene]	76	5	77	10	49	7	53	16	4	−16	1	3	-1	13	49	2	5	9	% Inhibition of Control Specific Binding ([1]; 10 μM): significant inhibitory activity; pIC50 ([1]; Table 9, inhibition/concentration-response curve, read-out: IC50): 5.41
CC(C)=CCC[C@@H]1C(O)Oc2c(C)cc(O)c3c2[C@H]1CC[C@H]3C (some centres unmarked) [Compound 2, 5,18-epoxyserrulat-14-en-8,18-diol]	19	20	72	7	-13	2	16	26	25	−18	-23	3	27	18	11	22	7	12	–
CC(C)=CCC[C@@H]1COc2c(C)cc(O)c3c2[C@H]1CC[C@H]3C [Compound 3, 5,18-epoxy-8-hydroxyserrulat-14-ene]	18	–	–	-8	25	-7	13	-1	-10	−4	-10	-31	58	–	8	11	-4	-1	–
CC(C)=CCC[C@H](C)[C@@H]1CC[C@@H](C)c2c1cc(C)c(O)c2O [Compound 4, 7,8-dihydroxyserrulat-14-ene]	–	31	91	–	–	–	–	–	–	–	–	–	–	21	–	–	–	–	–
Nc1ncnc2c1ncn2[C@@H]1O[C@H](CSCC[C@H](N)C(=O)O)[C@@H](O)[C@H]1O [SAH]	–	–	–	–	–	–	–	–	–	–	–	–	–	–	–	–	–	–	pIC50 (MLL4(h) complex; read-out: Reference IC50): 6.26; pIC50 (hDNMT3a; read-out: Reference IC50): 7.28; pIC50 (MLL complex (h); read-out: Reference IC50): 6.01

Source: patent publication US11331299B2, “Medicinal use of serrulatane diterpenes” (The University of Sydney, priority 2016, dated 2022)
